What was measured:
[1] = biological target: DNA topoisomerase 2-alpha (Homo sapiens, UniProt P11388); test: Inhibition of recombinant human topoisomerase 2alpha using supercoiled pNO1 plasmid as substrate after 30 mins by SYBR-GOLD staining based fluorimetric analysis
DNA topoisomerase 2-beta = DNA topoisomerase 2-beta (Homo sapiens, UniProt Q02880); test: Poison activity at recombinant human topoisomerase 2beta using pBR322 plasmid as substrate after 30 mins by ethidium bromide staining based agarose gel electrophoresis
Sequence of DNA topoisomerase 2-beta (Q02880 whole entry): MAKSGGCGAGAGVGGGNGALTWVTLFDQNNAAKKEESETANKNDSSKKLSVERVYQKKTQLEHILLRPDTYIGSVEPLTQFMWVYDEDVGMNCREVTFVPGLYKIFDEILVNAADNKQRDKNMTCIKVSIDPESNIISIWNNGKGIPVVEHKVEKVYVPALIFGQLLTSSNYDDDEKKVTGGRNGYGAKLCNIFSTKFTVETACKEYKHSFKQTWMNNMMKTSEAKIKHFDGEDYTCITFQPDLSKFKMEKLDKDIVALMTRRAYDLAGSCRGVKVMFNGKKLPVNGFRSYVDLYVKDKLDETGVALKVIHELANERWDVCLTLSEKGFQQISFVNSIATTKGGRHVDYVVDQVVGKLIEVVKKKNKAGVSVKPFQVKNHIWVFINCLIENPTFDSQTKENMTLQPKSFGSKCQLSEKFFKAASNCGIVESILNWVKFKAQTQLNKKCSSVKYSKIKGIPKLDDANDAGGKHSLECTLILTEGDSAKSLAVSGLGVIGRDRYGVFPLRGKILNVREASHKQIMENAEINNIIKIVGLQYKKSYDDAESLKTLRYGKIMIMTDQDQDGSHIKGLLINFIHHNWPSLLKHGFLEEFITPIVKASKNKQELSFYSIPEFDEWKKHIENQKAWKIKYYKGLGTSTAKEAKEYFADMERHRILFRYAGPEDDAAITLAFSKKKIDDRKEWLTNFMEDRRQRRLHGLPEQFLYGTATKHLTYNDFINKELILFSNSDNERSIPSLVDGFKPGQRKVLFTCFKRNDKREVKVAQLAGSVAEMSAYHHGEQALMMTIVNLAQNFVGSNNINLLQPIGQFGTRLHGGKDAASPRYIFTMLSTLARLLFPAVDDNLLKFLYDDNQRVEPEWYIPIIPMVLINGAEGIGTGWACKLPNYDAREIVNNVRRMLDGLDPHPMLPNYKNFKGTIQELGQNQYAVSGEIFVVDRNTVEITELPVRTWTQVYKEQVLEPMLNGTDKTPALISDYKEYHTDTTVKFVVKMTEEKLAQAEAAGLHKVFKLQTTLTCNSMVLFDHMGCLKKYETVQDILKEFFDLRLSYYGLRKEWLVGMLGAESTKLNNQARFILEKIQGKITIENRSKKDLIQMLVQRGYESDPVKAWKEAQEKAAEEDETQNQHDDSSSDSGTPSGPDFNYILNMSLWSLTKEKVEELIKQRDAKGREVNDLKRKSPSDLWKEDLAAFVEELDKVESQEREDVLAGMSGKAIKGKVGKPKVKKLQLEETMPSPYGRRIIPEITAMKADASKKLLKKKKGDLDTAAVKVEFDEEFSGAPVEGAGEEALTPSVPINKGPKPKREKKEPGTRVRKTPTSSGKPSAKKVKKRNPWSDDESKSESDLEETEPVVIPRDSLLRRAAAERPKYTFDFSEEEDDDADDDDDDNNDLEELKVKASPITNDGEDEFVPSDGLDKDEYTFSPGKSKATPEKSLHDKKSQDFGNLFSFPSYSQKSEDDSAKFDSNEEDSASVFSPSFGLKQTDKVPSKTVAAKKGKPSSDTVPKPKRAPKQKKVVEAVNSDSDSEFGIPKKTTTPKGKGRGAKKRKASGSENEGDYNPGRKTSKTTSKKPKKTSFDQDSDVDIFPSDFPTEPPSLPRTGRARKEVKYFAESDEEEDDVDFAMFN

MDA-MB-231 = test: Antiproliferative activity against human MDA-MB-231 cells after 24 hrs by MTT assay; format: functional, cell-based; details: MDA-MB-231, 24 h
MCF7 = test: Antiproliferative activity against human MCF7 cells after 24 hrs by MTT assay; format: functional, cell-based; details: MCF7, 24 h
[2] = test system: Panel NCI-60 (60 carcinoma cell lines); test: Antiproliferative activity against human NCI60 cells after 48 hrs by SRB assay; format: functional

Sequence of DNA topoisomerase 2-alpha (P11388 whole entry): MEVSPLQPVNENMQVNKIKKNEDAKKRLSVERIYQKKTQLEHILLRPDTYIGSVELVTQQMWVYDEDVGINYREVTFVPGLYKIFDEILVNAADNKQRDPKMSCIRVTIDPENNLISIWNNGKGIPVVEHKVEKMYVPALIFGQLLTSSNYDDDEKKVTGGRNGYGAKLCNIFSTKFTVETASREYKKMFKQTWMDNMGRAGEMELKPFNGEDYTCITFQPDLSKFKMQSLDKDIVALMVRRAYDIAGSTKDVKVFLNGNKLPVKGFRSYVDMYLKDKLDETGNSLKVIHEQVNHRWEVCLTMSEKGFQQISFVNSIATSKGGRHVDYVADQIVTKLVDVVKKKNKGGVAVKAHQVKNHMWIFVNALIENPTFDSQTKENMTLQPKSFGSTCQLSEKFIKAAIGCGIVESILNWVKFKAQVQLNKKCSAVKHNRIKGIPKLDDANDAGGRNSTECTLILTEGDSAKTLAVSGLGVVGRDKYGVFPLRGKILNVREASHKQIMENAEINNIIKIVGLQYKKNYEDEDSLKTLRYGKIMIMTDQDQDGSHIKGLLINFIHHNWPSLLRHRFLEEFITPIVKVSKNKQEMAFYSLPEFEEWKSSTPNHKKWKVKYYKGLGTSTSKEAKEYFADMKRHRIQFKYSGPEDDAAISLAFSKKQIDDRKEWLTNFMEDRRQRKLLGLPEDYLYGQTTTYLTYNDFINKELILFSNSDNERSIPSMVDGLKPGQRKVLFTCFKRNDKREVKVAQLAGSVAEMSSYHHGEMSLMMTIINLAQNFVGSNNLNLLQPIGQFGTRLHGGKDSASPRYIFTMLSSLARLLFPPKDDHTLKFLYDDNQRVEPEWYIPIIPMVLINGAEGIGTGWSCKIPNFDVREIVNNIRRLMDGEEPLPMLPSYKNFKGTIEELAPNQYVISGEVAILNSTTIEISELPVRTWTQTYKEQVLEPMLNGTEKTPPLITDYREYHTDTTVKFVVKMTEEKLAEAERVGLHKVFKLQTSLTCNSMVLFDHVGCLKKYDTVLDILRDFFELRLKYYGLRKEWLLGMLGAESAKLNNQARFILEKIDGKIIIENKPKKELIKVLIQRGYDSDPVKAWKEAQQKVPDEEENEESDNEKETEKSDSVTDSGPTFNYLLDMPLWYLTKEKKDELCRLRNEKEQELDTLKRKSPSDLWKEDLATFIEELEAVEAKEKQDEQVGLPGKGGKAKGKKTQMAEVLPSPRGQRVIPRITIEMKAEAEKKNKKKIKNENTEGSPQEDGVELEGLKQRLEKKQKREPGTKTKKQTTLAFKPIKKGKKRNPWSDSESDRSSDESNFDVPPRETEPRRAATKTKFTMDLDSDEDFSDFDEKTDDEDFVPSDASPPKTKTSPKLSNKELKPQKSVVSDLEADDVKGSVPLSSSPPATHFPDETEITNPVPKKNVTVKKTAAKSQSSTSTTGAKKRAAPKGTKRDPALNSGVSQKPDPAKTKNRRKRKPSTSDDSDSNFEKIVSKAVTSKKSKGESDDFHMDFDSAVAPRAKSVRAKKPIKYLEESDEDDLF

SMILES | IC50 (MDA-MB-231) [µM] | IC50 (MCF7) [µM] | further results
O=C(O)c1ccc(Nc2ncnc3nc[nH]c23)cc1 | – | – | IC50 [1]: 44 µM
O=C(O)c1cccc(Nc2ncnc3[nH]cnc23)c1 | – | – | IC50 [1]: 65 µM
CN(C)CCCNc1ccc(NCCCN(C)C)c2c1C(=O)c1ccc(C(=O)Nc3ccc(S(C)(=O)=O)cc3)cc1C2=O | – | – | IC50 (DNA topoisomerase 2-beta): 4.34 to 6.71 µM
CN(C)CCNc1ccc(NCCN(C)C)c2c1C(=O)c1ccc(C(=O)Nc3ccc(S(C)(=O)=O)cc3)cc1C2=O | – | – | IC50 (DNA topoisomerase 2-beta): 5.25 to 9.31 µM
COc1cc(S(C)(=O)=O)ccc1NC(=O)c1ccc2c(c1)C(=O)c1c(NCCCN(C)C)ccc(NCCCN(C)C)c1C2=O | – | – | IC50 (DNA topoisomerase 2-beta): 1.06 to 3.33 µM
N[C@@H](Cc1ccc(N(CCCl)CCCl)cc1)C(=O)O | – | – | GI50 [2]: 29 µM
O=C1c2ccccc2C(=O)c2c(NCCNCCO)ccc(NCCNCCO)c21 [AMETANTRONE] | – | – | IC50 (DNA topoisomerase 2-beta): 0.03 to 0.99 µM
Cn1c(CCCC(=O)O)nc2cc(N(CCCl)CCCl)ccc21 [BENDAMUSTINE] | – | – | GI50 [2]: 70 µM
O=C(O)CCCc1ccc(N(CCCl)CCCl)cc1 [CHLORAMBUCIL] | – | – | GI50 [2]: 60 µM
COc1cc([C@@H]2c3cc4c(cc3[C@@H](O[C@@H]3O[C@@H]5CO[C@@H](C)O[C@H]5[C@H](O)[C@H]3O)[C@H]3COC(=O)[C@H]23)OCO4)cc(OC)c1O [ETOPOSIDE] | – | – | GI50 [2]: 12 µM

More lines, main results first:

IC50 (MDA-MB-231) [µM] | IC50 (MCF7) [µM] | SMILES | further results
170 | 140 | Oc1cccc(-c2nnc(Nc3cccc(F)c3)s2)c1 | –
130 | 160 | Fc1ccc(Nc2nnc(-c3ccc(Cl)cc3Cl)s2)cc1 | –
> 200 | > 200 | Clc1ccc(OCc2nnc(Nc3ccc(Br)cc3)s2)c(Cl)c1 | –
> 200 | > 200 | Fc1cccc(Nc2nnc(-c3cccc(Cl)c3)s2)c1 | –
70 | 120 | Clc1ccc(-c2nnc(Nc3ccc(Br)cc3)s2)c(Cl)c1 | –
> 200 | > 200 | Fc1ccc(Nc2nnc(COc3ccc(Cl)cc3Cl)s2)cc1 | –

Reference: ChEMBL document CHEMBL4382195, “Discovery of Novel Topoisomerase II Inhibitors by Medicinal Chemistry Approaches” (J Med Chem, 2018)
